From ChEMBL document CHEMBL1131526, “Non-peptidic HIV protease inhibitors: C2-symmetry-based design of bis-sulfonamide dihydropyrones” (Bioorg Med Chem Lett, 1998) come the findings set out here.

Test [1] addresses Human immunodeficiency virus type 1 protease (Human immunodeficiency virus 1) (UniProt Q72874). The experiment in a line: Compound was evaluated for in vitro inhibition of human immunodeficiency virus type 1 (HIV-1) Protease at 1 uM concentration.
Test [2] deals with Human immunodeficiency virus type 1 protease (Human immunodeficiency virus 1, UniProt Q72874). The experiment in a line: Compound was evaluated for in vitro inhibition of human immunodeficiency virus type 1 (HIV-1) Protease.
Test [3] is described as follows: Compound was evaluated for in vitro inhibition of human immunodeficiency virus type 1 (HIV-1) Protease.

SMILES strings stand for the structures.

In turn, `CCC(C1=C(O)OC(CC)(c2cccc(NS(=O)(=O)c3cccc4cccnc34)c2)CC1=O)c1cccc(NS(=O)(=O)c2cccc3cccnc23)c1` (stereo unspecified) displayed an inhibition in test [1] of 35%. The same measure, in the same setting: the figure for `CCC(C1=C(O)OC(CC)(c2cccc(NS(=O)(=O)c3ccc(C#N)cc3)c2)CC1=O)c1cccc(NS(=O)(=O)c2ccc(C#N)cc2)c1` (stereo unspecified) is 19%. As to `CCC(C1=C(O)OC(CC)(c2cccc(NS(=O)(=O)c3cn(C)cn3)c2)CC1=O)c1cccc(NS(=O)(=O)c2cn(C)cn2)c1` (stereo unspecified), the inhibition constant Ki in test [2] was determined as 4.7 nM. Same read-out and setting: the figure for `CCC(C1=C(O)OC(CC)(c2cccc(NS(=O)(=O)c3ccc(C#N)cn3)c2)CC1=O)c1cccc(NS(=O)(=O)c2ccc(C#N)cn2)c1` (stereo unspecified) is 0.1 nM. For the compound `CCCC1(CCc2ccccc2)CC(=O)C(C(CC)c2cccc(NS(=O)(=O)c3cn(C)cn3)c2)=C(O)O1` (stereo unspecified), in test [3], 500 nM corresponded to half-maximal inhibition (IC50). For the same compound, the Ki in test [2] came to 1 nM.

Broadly, the inhibition is the change of the read-out against control, counted positive when it falls. The term Ki denotes the equilibrium dissociation constant of an inhibitor or competing ligand from its target. Broadly, the IC50 is the concentration at which inhibition is half-maximal. A low value points to greater potency.
